Test results: US20250332173A1, “COMPOUNDS AND METHODS FOR MODULATING NUCLEIC ACID SPLICING” (REMIX THERAPEUTICS INC., priority 2021, published 2025)
Read-outs that look alike come from different tables or passages of the source.

How the values were obtained:
Assay type in all cases: cell-based, human
[1] = system: HTT mRNA; assay: RT-qPCR splicing assay, HTT canonical junction (CJ) and alternative junction (AJ) mRNA; details: Homo sapiens; for AC50: increase in HTT alternative junction (AJ) mRNA, read-out: HTT AJ AC50
In short: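 Splicing switches were read by TaqMan RT-qPCR on lysates, quantifying exon-exon junctions of the canonical and alternative-exon isoforms. Lysates came from K562 (GAPDH/GUSB reference) or A673 (PPIA reference) cells exposed 24 h to compound in 11 threefold steps from 10 uM, with DMSO ≤0.25%.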

[2] = system: Target C; assay: HiBiT protein abundance assay, Target C (Promega Nano-Glo HiBiT Lytic Detection System, knock-in K562 cell line); details: Homo sapiens, K562, 24 h, HiBiT K562 cell line, 24 hours, top dose 10 μM; read-out: Effect on protein abundance, Target C (IC50 category)
In short: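 Protein abundance was read by Nano-Glo HiBiT lytic luminescence after 24 h compound exposure (10-point, threefold series from 10 μM final) of HiBiT knock-in K562 cells. Parental K562 served as baseline; the 50%-abundance concentration was interpolated from a four-parameter logistic fit.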

[3] = system: MYB; assay: HiBiT protein abundance assay, MYB HiBiT K562 cell line; details: 24 hours, top dose 10 μM
In short: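 Tagged-protein abundance measured by split-NanoBiT luminescence after lysis, following 24 h compound exposure (37° C; 10 μM top, 3-fold, 10 points; DMSO ≤0.25%) of HiBiT knock-in K562 cells. Percent response vs DMSO and unmodified-cell controls; 4-parameter logistic interpolation at 50% gave IC50.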

[4] = decrease in HTT canonical junction (CJ) mRNA, RT-qPCR, read-out: HTT CJ IC50
[5] = canonical junction qPCR panel, Table 5, read-out: HTT (decrease in CJ mRNA levels, IC50)
[6] = HiBiT K562 cell line, read-out: Effect on protein abundance, MYB (IC50 category)
[7] = Table 5 panel, canonical junction qPCR, compound concentration having 50% response in CJ decrease, read-out: HTT IC50 (decrease in CJ mRNA levels)
[8] = HiBiT lytic detection, modified K562 cells, read-out: Effect on protein abundance, MYB (IC50)

SMILES | IC50 [1, 4] [µM] | AC50 ([1]; RT-qPCR) [µM] | IC50 [1, 5] [µM] | IC50 [2] [µM] | IC50 [3, 6] [µM] | IC50 [1, 7] [µM] | IC50 [3, 8] [µM]
Cc1c(O)c(-c2ncc3c(=O)n(C4CCNC4)ccc3n2)cc2cn(C)nc12 (stereo in doubt) [Compound 1439, (6R)-2-(6-hydroxy-2,7-dimethyl-indazol-5-yl)-6-pyrrolidin-3-yl-pyrido[4,3-d]pyrimidin-5-one] | > 10 | 1 to 10 | 1 to 10 | > 10 | 0.1 to 1 |  | 
Cc1c(O)c(-c2ncc3c(=O)n(C4CCNC4)ccc3n2)cc2cn(C)nc12 (stereo in doubt) [Compound 1440, (6S)-2-(6-hydroxy-2,7-dimethyl-indazol-5-yl)-6-pyrrolidin-3-yl-pyrido[4,3-d]pyrimidin-5-one] | > 10 | > 10 | > 10 | > 10 | 0.1 to 1 |  | 
Cc1c(O)c(-c2ncc3c(=O)n([C@@H]4CC5CC4CN5)ccc3n2)cc2cn(C)nc12 (stereo in doubt) [Compound 1443, 6-[(1R,4R,5R)-2-azabicyclo[2.2.1]heptan-5-yl]-2-(6-hydroxy-2,7-dimethyl-indazol-5-yl)pyrido[4,3-d]pyrimidin-5-one] | 1 to 10 | 1 to 10 | 1 to 10 | 1 to 10 | 0.1 to 1 |  | 
Cc1c(O)c(-c2ncc3c(=O)n(C4C[C@H]5C[C@@H]4CN5)ccc3n2)cc2cn(C)nc12 (stereo in doubt) [Compound 1444, 6-[(1R,4R,5R)-2-azabicyclo[2.2.1]heptan-5-yl]-2-(6-hydroxy-2,7-dimethyl-indazol-5-yl)pyrido[4,3-d]pyrimidin-5-one] | 0.1 to 1 | 0.1 to 1 | 0.1 to 1 | 0.1 to 1 | 0.1 to 1 |  | 
Cc1c(O)c(-c2ncc3c(=O)n([C@@H]4C[C@H]5C[C@@H]4CN5)ccc3n2)cc2cn(C)nc12 (stereo in doubt) [Compound 1446, 6-[(1R,4R,5R)-2-azabicyclo[2.2.1]heptan-5-yl]-2-(6-hydroxy-2,7-dimethyl-indazol-5-yl)pyrido[4,3-d]pyrimidin-5-one] | > 10 | > 10 | > 10 | > 10 | 1 to 10 |  | 
Cn1cc2cc(-c3ccc4c(=O)n(C5CCNCC5)cnc4c3)ccc2n1 [Compound 182] | 1 to 10 | 1 to 10 |  | 1 to 10 | 0.1 to 1 | 1 to 10 | 
Cc1cn2nc(-c3ccc4c(=O)n(C5CCNCC5)ncc4c3)cc(C)c2n1 [Compound 186] | < 0.1 | < 0.1 |  | 0.1 to 1 | 0.1 to 1 | < 0.1 | 
Cc1cn2nc(-c3ccc4c(c3F)CCN(C3CCNCC3)C4=O)cc(C)c2n1 [Compound 188] | 1 to 10 | 1 to 10 |  | 1 to 10 | 0.1 to 1 | 1 to 10 | 
CN1CCC(Nc2ccc3c(=O)n(-c4ccc5cn(C)nc5c4)cnc3c2)CC1 [Compound 203] | > 10 | > 10 |  | > 10 | > 10 | > 10 | 
Cn1cc2ccc(-n3cnc4cc(NC5CCNCC5)ccc4c3=O)cc2n1 [Compound 204] | > 10 | > 10 |  | > 10 | > 10 | > 10 | 
Cc1c(O)c(-c2ncc3c(=O)n(C4CCNCC4)cc(C)c3n2)cc2cn(C)nc12 [Compound 1191] | 0.1 to 1 | < 0.1 |  | < 0.1 | 1 to 10 | < 0.1 | 
Cc1cn2cc(-c3cc4ccn(C5CCNCC5)c(=O)c4cn3)cc(F)c2n1 [Compound 1196] | 0.1 to 1 | 0.1 to 1 |  | 0.1 to 1 | < 0.1 | 0.1 to 1 | 
Cc1cn2nc(-c3cc4ccn(C5CCNCC5)c(=O)c4cn3)cc(C)c2n1 [Compound 1198, 6-(2,8-dimethylimidazo[1,2-b]pyridazin-6-yl)-2-(piperidin-4-yl)-2,7-naphthyridin-1(2H)-one] | 0.1 to 1 | 0.1 to 1 |  | 0.1 to 1 | 0.1 to 1 | 0.1 to 1 | 
Cn1cc2cc(-c3cc4ccn(C5CCNCC5)c(=O)c4cn3)c(O)c(F)c2n1 [Compound 1199] | 1 to 10 | 1 to 10 |  | 1 to 10 | 1 to 10 | 1 to 10 | 
Cc1cc(-c2cc3ccn(C4CCNCC4)c(=O)c3cn2)cc2cn(C)nc12 [Compound 1204, 6-(2,7-dimethyl-2H-indazol-5-yl)-2-(piperidin-4-yl)-2,7-naphthyridin-1(2H)-one] | 0.1 to 1 | 0.1 to 1 |  | 1 to 10 | 0.1 to 1 | 0.1 to 1 | 
Cc1cn2cc(-c3cc4ccn(C5CCNCC5)c(=O)c4cn3)nc(C)c2n1 [Compound 1205, 6-(2,8-dimethylimidazo[1,2-a]pyrazin-6-yl)-2-(piperidin-4-yl)-2,7-naphthyridin-1(2H)-one] | 0.1 to 1 | 0.1 to 1 |  | 0.1 to 1 | 0.1 to 1 | 0.1 to 1 | 
Cc1cc(-c2cc3ccn(C4CCN(C)CC4)c(=O)c3cn2)cc2cn(C)nc12 [Compound 1206, 6-(2,7-dimethyl-2H-indazol-5-yl)-2-(1-methylpiperidin-4-yl)-2,7-naphthyridin-1(2H)-one] | > 10 | > 10 |  | > 10 | 0.1 to 1 | > 10 | 
Cc1cn2cc(-c3ncc4c(=O)n([C@H]5CCNC5)ccc4n3)cc(F)c2n1 [Compound 1220] | 0.1 to 1 | 0.1 to 1 |  |  | 0.1 to 1 | 0.1 to 1 | 
Cc1cn2nc(-c3ccc4c(=O)n(C5CCNCC5)ncc4n3)cc(C)c2n1 [Compound 1247] | < 0.1 | < 0.1 | < 0.1 |  |  |  | < 0.1
Cn1cc2cc(-c3ccc4c(=O)n(C5CCNC6(CC6)C5)ncc4n3)c(O)cc2n1 (stereo not drawn) [Compound 1306] | 0.1 to 1 | 0.1 to 1 | 0.1 to 1 |  |  |  | 0.1 to 1
CN1CCC(n2ncc3nc(-c4cc5cn(C)nc5cc4O)ccc3c2=O)CC1 [Compound 1307] | 1 to 10 | 1 to 10 | 1 to 10 |  |  |  | 1 to 10
CCN1CCC(n2ncc3nc(-c4cc(C)c5nc(C)cn5n4)ccc3c2=O)CC1 [Compound 1308] | 0.1 to 1 | < 0.1 | < 0.1 |  |  |  | 0.1 to 1
Cc1cn2nc(-c3ccc4c(=O)n(C5CCN(CCF)CC5)ncc4n3)cc(C)c2n1 [Compound 1309] | 0.1 to 1 | < 0.1 | < 0.1 |  |  |  | 0.1 to 1
CCN1CCC(n2ncc3nc(-c4cc5cn(C)nc5cc4O)ccc3c2=O)CC1 [Compound 1310] | 1 to 10 | 0.1 to 1 | 0.1 to 1 |  |  |  | 1 to 10
Cc1cn2nc(-c3ccc4c(=O)n(C5CCN(C)CC5)ncc4n3)cc(C)c2n1 [Compound 1311] | 0.1 to 1 | 0.1 to 1 | 0.1 to 1 |  |  |  | 0.1 to 1
